Measured values published in DBAASP.
≈ marks a conversion by molar mass, not a printed value.

How the values were obtained:
Assay in all cases: ≥ marks a high value that may be exact or a test limit, other limits are often not marked, values filed in µg/mL are converted to µM
[1] = system: Acinetobacter baumannii
[2] = system: Candida albicans ATCC 90028
[3] = system: Escherichia coli ATCC 25726
[4] = system: Staphylococcus aureus ATCC 25923
[5] = system: Bacillus subtilis 168
[6] = system: Candida albicans F7-39/IDE99
[7] = system: Escherichia coli B
[8] = system: Pseudomonas aeruginosa
[9] = system: Staphylococcus aureus
[10] = system: Enterococcus faecalis ATCC 29212
[11] = system: Leuconostoc lactis
[12] = system: Micrococcus luteus ATCC 9341

CC[C@H](C)[C@H](NC(=O)CN)C(=O)N[C@@H](Cc1c[nH]c2ccccc12)C(=O)N[C@@H](CC(=O)O)C(=O)N[C@H](C(=O)N[C@H](C(=O)N[C@@H](CCCCN)C(=O)N[C@@H](CO)C(=O)N[C@@H](CCSC)C(=O)NCC(=O)N[C@@H](CCCCN)C(=O)N[C@H](C(=O)N[C@@H](Cc1ccccc1)C(=O)N[C@@H](C)C(=O)NCC(=O)N[C@@H](CCCCN)C(=O)N[C@H](C(=O)N[C@@H](CCCCN)C(=O)N[C@@H](CCC(N)=O)C(=O)N[C@@H](CC(N)=O)C(=O)N[C@@H](CC(C)C)C(N)=O)[C@@H](C)CC)C(C)C)[C@@H](C)CC)[C@@H](C)O [GIWDTIKSMGKVFAGKIKQNL]
MIC [1]: 12.5 µM (≈ 29.2 µg/mL) | MIC [2]: 25 µM (≈ 58.3 µg/mL) | MIC [3]: ≥ 50 µM | MIC [4]: > 100 µM

CC[C@H](C)[C@H](NC(=O)[C@H](CC(C)C)NC(=O)[C@H](Cc1cnc[nH]1)NC(=O)CNC(=O)[C@H](CC(C)C)NC(=O)[C@@H](NC(=O)[C@H](CCCCN)NC(=O)[C@H](CO)NC(=O)[C@H](Cc1c[nH]c2ccccc12)NC(=O)[C@H](CCCCN)NC(=O)CN)[C@@H](C)CC)C(=O)N[C@@H](CCCN=C(N)N)C(N)=O [GKWSKILGHLIR]
MIC [5]: 2 µM (≈ 2.81 µg/mL) | MIC [6]: 7.4 µM (≈ 10.4 µg/mL) | MIC [7]: 3.7 µM (≈ 5.2 µg/mL) | MIC [8]: 71.7 µM (≈ 101 µg/mL) | MIC [9]: 23.3 µM (≈ 32.8 µg/mL)

CC[C@H](C)[C@H](NC(=O)CNC(=O)[C@@H](NC(=O)[C@@H](NC(=O)[C@H](Cc1cnc[nH]1)NC(=O)[C@H](CCCCN)NC(=O)[C@H](C)NC(=O)[C@H](CC(C)C)NC(=O)[C@H](CC(=O)O)NC(=O)[C@H](CC(C)C)NC(=O)[C@H](CC(C)C)NC(=O)CN)C(C)C)[C@@H](C)CC)C(=O)N[C@@H](C)C(=O)N[C@@H](CO)C(=O)N[C@@H](CCCCN)C(=O)N[C@@H](CC(C)C)C(N)=O [GLLDLAKHVIGIASKL]
MIC [10]: 100 µM (≈ 165 µg/mL) | MIC [11]: ≥ 100 µM

CC[C@H](C)[C@H](N)C(=O)N[C@@H](CC(C)C)C(=O)NCC(=O)N[C@@H](Cc1c[nH]c2ccccc12)C(=O)N[C@@H](CCCCN)C(=O)N[C@@H](Cc1c[nH]c2ccccc12)C(=O)NCC(=O)N[C@@H](Cc1c[nH]c2ccccc12)C(=O)N[C@@H](Cc1c[nH]c2ccccc12)C(=O)NCC(=O)N[C@@H](Cc1c[nH]c2ccccc12)C(=O)N[C@@H](CCCN=C(N)N)C(=O)N[C@@H](CCCN=C(N)N)C(N)=O [ILGWKWGWWGWRR]
MIC [12]: 0.4 µM (≈ 0.714 µg/mL)

CC[C@H](C)[C@H](N)C(=O)N[C@@H](CC(C)C)C(=O)N1CCC[C@H]1C(=O)N[C@@H](Cc1c[nH]c2ccccc12)C(=O)N[C@@H](CCCCN)C(=O)N[C@@H](Cc1c[nH]c2ccccc12)C(=O)N1CCC[C@H]1C(=O)N[C@@H](Cc1c[nH]c2ccccc12)C(=O)N[C@@H](C)C(=O)N1CCC[C@H]1C(=O)N[C@@H](Cc1c[nH]c2ccccc12)C(=O)N[C@@H](CCCN=C(N)N)C(=O)N[C@@H](CCCN=C(N)N)C(N)=O [ILPWKWPWAPWRR]
MIC [12]: 0.8 µM (≈ 1.43 µg/mL)

CC[C@H](C)[C@H](N)C(=O)N[C@H](C(=O)N[C@H](C(=O)N1CCC[C@H]1C(=O)N1CCC[C@H]1C(=O)N[C@H](C(=O)N[C@H](C(=O)N[C@@H](CCCCN)C(=O)N[C@@H](CC(=O)O)C(=O)N[C@H](C(=O)N[C@@H](CC(C)C)C(=O)N[C@@H](CCCCN)C(=O)N[C@@H](CCCCN)C(=O)N[C@@H](Cc1ccccc1)C(=O)N[C@H](C(=O)N[C@@H](CCCCN)C(=O)NCC(=O)N[C@@H](C)C(=O)N[C@H](C(=O)N[C@@H](CO)C(=O)N[C@@H](CO)C(=O)N[C@H](C(=O)N[C@@H](CCSC)C(N)=O)C(C)C)[C@@H](C)CC)[C@@H](C)CC)[C@@H](C)O)C(C)C)[C@@H](C)CC)[C@@H](C)CC)[C@@H](C)O [ITIPPIVKDTLKKFIKGAISSVM]
MIC [3]: ≥ 40 µM | MIC [4]: 20 µM (≈ 50 µg/mL)

CC[C@H](C)[C@H](N)C(=O)N[C@H](C(=O)N[C@H](C(=O)N1CCC[C@H]1C(=O)N1CCC[C@H]1C(=O)N[C@H](C(=O)N[C@H](C(=O)N[C@@H](CCCCN)C(=O)N[C@@H](CC(N)=O)C(=O)N[C@H](C(=O)N[C@@H](CC(C)C)C(=O)N[C@@H](CCCCN)C(=O)N[C@@H](CCCCN)C(=O)N[C@@H](Cc1ccccc1)C(=O)N[C@H](C(=O)N[C@@H](CCCCN)C(=O)NCC(=O)N[C@@H](C)C(=O)N[C@H](C(=O)N[C@@H](CO)C(=O)N[C@@H](C)C(=O)N[C@@H](CC(C)C)C(=O)N[C@@H](CCSC)C(=O)N[C@@H](CO)C(=O)O)C(C)C)[C@@H](C)CC)[C@@H](C)O)C(C)C)[C@@H](C)CC)[C@@H](C)CC)[C@@H](C)O [ITIPPIVKNTLKKFIKGAVSALMS]
MIC [3]: ≥ 40 µM | MIC [4]: 10 µM (≈ 25.7 µg/mL)

CSCC[C@H](NC(=O)CNC(=O)[C@H](Cc1ccccc1)NC(=O)[C@@H](N)CC(C)C)C(=O)N[C@@H](C)C(=O)N[C@@H](CC(C)C)C(=O)N[C@@H](CCCCN)C(=O)N[C@@H](CC(C)C)C(=O)N[C@@H](CC(C)C)C(=O)N[C@@H](CCCCN)C(=O)N[C@@H](CCCCN)C(=O)N[C@H](C(=O)N[C@@H](CC(C)C)C(N)=O)C(C)C [LFGMALKLLKKVL]
MIC [5]: 1.5 µM (≈ 2.21 µg/mL) | MIC [6]: 10 µM (≈ 14.7 µg/mL) | MIC [7]: 3.8 µM (≈ 5.6 µg/mL) | MIC [8]: 50 µM (≈ 73.6 µg/mL) | MIC [9]: 2.3 µM (≈ 3.39 µg/mL)
